Read-outs that look alike come from different tables or passages of the source.
Columns and labels:
Non Hodgkin Lymphoma B = test: Inhibition of primary tumor cell cultures (48 hours) vs NK1 receptor immunostaining (Example 1); type: cell-based; details: Homo sapiens, 1 micromolar, read-out: Percentage of inhibition of cell cultures
Protocol: (§1) Cell cultures. To obtain tumor cells from human primary tumors we used the method described in De Bari et al. (De Bari et al. 2001). Briefly, small pieces of the tumors were digested into a hyaluronidase solution (Sigma-Aldrich, USA) at a concentration of 1 mg/ml during 15 minutes at 37°C, and then they were treated with 6 mg/ml of collagenase type IV (Invitrogen) during 2 hours at 37°C. Consecutively, cells were washed, and resuspended in the DMEM culture medium with high concentration of glucose (Dulbecco's Modified Eagle's Medium, Invitrogen) supplemented with 1% of antibiotics-antimycotics (Invitrogen) and with 1% of sodium pyruvate (Invitrogen), and the cells were seeded in culture slides at a concentration of 10.000 cells per square centimeter. When cells reached confluence, the adherent cells were separated using sterile trypsin at 0,5% (Invitrogen) and they were used among passages 3 and 9. For the assays shown next, tumor cells were seeded on slides at a concentration of 25.000 cells per well. A total of 6 wells containing the tumor cells were used as survival control. […] All the cultures were kept during 48 hours and later on recollected for their analysis.
(§2) Immunohistochemistry techniques. The presence of NK1 receptors was also analyzed using immunohistochemistry techniques. Briefly, a sample of each of the cultures of the cell lines used in the present invention, was centrifuged (5 minutes at 1.500 rpm) and the pellet obtained was dehydrated using increasing concentrations of ethanol and, finally, xylol. Then, said dehydrated samples were embedded in paraffin, creating a block of cells. Such paraffin blocks were cut with a microtome at 5 microns thickness, and were placed on microscope slides adequate to perform immunohistochemistry techniques. Consecutively, they were de-paraffinized by immersing them in xylol, to be finally hydrated using a solution containing decreasing concentrations of ethanol, and finally submerged them into water. […] After this, the samples were left to cool down at room temperature for 10 minutes. The endogenous peroxidase activity was blocked with 3% peroxide of hydrogen for 30 minutes at room temperature. After washing the samples with 0.05 M of Tris buffer, they were incubated with 10% non-immune pork serum at for 30 minutes at room temperature. To analyze the expression of NK1 receptors, the cellular samples were incubated in the presence of anti-NK1 antibodies (S8305, Sigma-Aldrich) diluted 1:1000, overnight at 4°C. Afterwards, the samples were washed in Tris buffer 0.05 M at room temperature. The next step was the addition of Envision System-HRP (Dako) reagents for 30 minutes at room temperature. Then, the samples were washed again in Tris buffer 0.05 M and the immunoreactivity was visualized through light microscopy with a chromogenic solution containing 3,3'-Diaminobenzidine (DAB+; Dako, USA). To differentiate the cell nuclei, they were slightly stained with hematoxylin. As negative control, it was used samples not incubated with the primary antibody anti-NK1, which was replaced by non-immune serum. All the samples were evaluated.
(§3) To value the immunostaining in each of the cases six cuts were performed to be analyzed by the immunohistochemistry technique. In each of the six cuts, it was counted cells in 20 fields (magnification 400x) using an Olympus microscope (model CX31). In each field it was counted the total number of cells and the number of cells presenting immunostaining, calculating afterwards the percentage of cells which presented immunostaining.

[1] = tested on: Melanoma (Nodular Melanoma); test: Inhibition of primary tumor cell cultures vs Kras mutation (Example 2); type: cell-based, human; details: Homo sapiens, 100 micromolar, read-out: Percentage of inhibition of cell cultures
Protocol: as §1
(§4) In each case the presence or not of mutations in K-ras gene was determined.
(§5) To determine the existence of mutations in the K-ras gene DNA from cancer tumor cells was extracted from samples obtained from the different cancer tumor cells, using DNA extraction kits from Takara (Madison, WI, US) or Ambion (Huntingdon, Cambridgeshire, United Kingdom), following the manufacturer's instructions, and as it has been previously published (Di Fiore F, et al. 2007). Consecutively it was analyzed by sequencing the exon 2 of the KRAS gene, , by means of PCR amplification from previously extracted cancer tumor DNA, using the following sense primer (SEQ ID NO. 15): 5'-[sequence]-3' and anti-sense primer (SEQ ID NO. 16): 5'-[sequence]-3'. After the purification using the Qiagen extraction kit, the PCR products were sequenced using the Big Dye Terminator Kit V3.1 (Applied Biosystems, Foster City, CA, U.S.) and an ABI Prism 377 or 3100 DNA sequencer (Applied Biosystems). The presence of a heterozygous mutation in the KRAS gene in cancer tumor cells of the cultures was defined as the appearance of a mutant peak of a height of at least a third of the wild type. All the sequence analysis were executed at least twice in two independent PCR.
(§6) The percentages of inhibition are expressed in percentage of variation in relation to control ± standard deviation.

[2] = tested on: Undifferentiated Pleomorphic Sarcoma (malignant fibrous histiocytoma grade 3); test: as above; type: cell-based, human; details: Homo sapiens, 100 micromolar, read-out: Percentage of inhibition of cell cultures
Protocol: as §1, §4, §5, §6

[3] = tested on: Malignant Fibrous Histiocytoma; test: Inhibition of primary tumor cell cultures (48 hours) vs NK1 receptor immunostaining (Example 1); type: cell-based; details: Homo sapiens, 1 micromolar, read-out: Percentage of inhibition of cell cultures
Protocol: as §1, §2, §3

Prostate carcinoma = test: cells; details: Homo sapiens, 1 micromolar
Protocol: as §1, §2, §3

[4] = tested on: Gastric carcinoma (Adenocarcinoma); test: Inhibition of primary tumor cell cultures vs Kras mutation (Example 2); type: cell-based, human; details: Homo sapiens, 100 micromolar, read-out: Percentage of inhibition of cell cultures
Protocol: (§7) Cell cultures. […] Briefly, small pieces of the tumors were digested into a hyaluronidase solution (Sigma-Aldrich, USA) at a concentration of 1 mg/ml during 15 minutes at 37°C, and then they were treated with 6 mg/ml of collagenase type IV (Invitrogen) during 2 hours at 37°C. Consecutively, cells were washed, and resuspended in the DMEM culture medium with high concentration of glucose (Dulbecco's Modified Eagle's Medium, Invitrogen) supplemented with 1% of antibiotics-antimycotics (Invitrogen) and with 1% of sodium pyruvate (Invitrogen), and the cells were seeded in culture slides at a concentration of 10.000 cells per square centimeter. When cells reached confluence, the adherent cells were separated using sterile trypsin at 0,5% (Invitrogen) and they were used among passages 3 and 9. For the assays shown next, tumor cells were seeded on slides at a concentration of 25.000 cells per well. A total of 6 wells containing the tumor cells were used as survival control. […] All the cultures were kept during 48 hours and later on recollected for their analysis.
as §4, §5
(§8) The antibody against NK1 receptor (Table 16) was used at 1/50 concentration. The percentages of inhibition are expressed in percentage of variation in relation to control ± standard deviation.

[5] = tested on: human primary tumor cells; test: Inhibition of primary tumor cell cultures vs absence or presence of ERK  protein (Example 3; tumor type per table line); type: cell-based; details: for Percentage of inhibition of cell cultures: 100 micromolar
Protocol: as §7
Consecutively, the cells were placed in cultures in the presence of several antagonists of the NK1 receptor.
In each case it was determined the presence or absence of the downstream effector in the MAP Kinases ERK pathway.
To determine the presence of the ERK protein, it was performed a Western Blot technique, using as primary antibody: Phospho-p44/42 MAPK (Erk1/2) (Thr202/Tyr204) (D13.14.4E) XP® Rabbit mAb (4370, Cell Signalling). To determine the presence of the MEK protein, it was performed the Western Blot technique, using as primary antibody Phospho-MEK1/2 (Ser217/221) (9121, Cell Signalling).
The antibody against NK1 receptor (Table 21) was used at 1/50 concentration. The percentages of inhibition are expressed in percentages of variation in relation to control ± standard deviation.

[6] = tested on: Pancreatic carcinoma (Adenocarcinoma); test: Inhibition of primary tumor cell cultures vs Kras mutation (Example 2); type: cell-based, human; details: Homo sapiens, 100 micromolar, read-out: Percentage of inhibition of cell cultures
Protocol: as §7, §4, §5, §8

Fibrosarcoma = test: Inhibition of primary tumor cell cultures (48 hours) vs NK1 receptor immunostaining (Example 1); type: cell-based; details: Homo sapiens, 1 micromolar, read-out: Percentage of inhibition of cell cultures
Protocol: as §1, §2, §3

[7] = tested on: Carcinoma of the uterine cervix; test: as above; type: cell-based; details: Homo sapiens, 1 micromolar, read-out: Percentage of inhibition of cell cultures
[8] = NK1 receptor immunostaining Group 1 (less than 20% of the cells)
[9] = NK1 receptor immunostaining Group 2 (20-80% of the cells)
[10] = NK1 receptor immunostaining Group 3 (more than 80% of the cells)
[11] = NK1 receptor immunostaining Intensity grade 1
[12] = NK1 receptor immunostaining Intensity grade 2
[13] = NK1 receptor immunostaining Intensity grade 3
[14] = Cases with Kras non-mutated (wild type)

## CC(=O)N1CCN([C@H]2CCN(C(=O)N(C)[C@H](C)c3cc(C(F)(F)F)cc(C(F)(F)F)c3)[C@@H](c3ccc(F)cc3C)C2)CC1 [Casopitant]
Non Hodgkin Lymphoma B; [8]
  inhibition at 1 µM: 15 ± 3%
Non Hodgkin Lymphoma B; [9]
  inhibition at 1 µM: 46 ± 5%
Non Hodgkin Lymphoma B; [10]
  inhibition at 1 µM: 94 ± 4%
Non Hodgkin Lymphoma B; [11]
  inhibition at 1 µM: 32 ± 3%
Non Hodgkin Lymphoma B; [12]
  inhibition at 1 µM: 55 ± 5%
Non Hodgkin Lymphoma B; [13]
  inhibition at 1 µM: 94 ± 4%
[1]; Cases with Kras mutated
  inhibition at 100 µM: 25 ± 6%
[1]; [14]
  inhibition at 100 µM: 94 ± 6%
[2]; Cases with Kras mutated
  inhibition at 100 µM: 26 ± 5%
[2]; [14]
  inhibition at 100 µM: 95 ± 5%
[3]; [8]
  inhibition at 1 µM: 14 ± 3%
[3]; [9]
  inhibition at 1 µM: 46 ± 4%
[3]; [10]
  inhibition at 1 µM: 94 ± 5%
[3]; [11]
  inhibition at 1 µM: 32 ± 5%
[3]; [12]
  inhibition at 1 µM: 53 ± 4%
[3]; [13]
  inhibition at 1 µM: 93 ± 2%
Prostate carcinoma; read-out: Percentage of inhibition of cell cultures, NK1 receptor immunostaining Group 1 (less than 20% of the cells)
  inhibition at 1 µM: 16 ± 2%
Prostate carcinoma; read-out: Percentage of inhibition of cell cultures, NK1 receptor immunostaining Group 2 (20-80% of the cells)
  inhibition at 1 µM: 45 ± 4%
Prostate carcinoma; read-out: Percentage of inhibition of cell cultures, NK1 receptor immunostaining Group 3 (more than 80% of the cells)
  inhibition at 1 µM: 93 ± 4%
Prostate carcinoma; read-out: Percentage of inhibition of cell cultures, NK1 receptor immunostaining Intensity grade 1
  inhibition at 1 µM: 33 ± 5%
Prostate carcinoma; read-out: Percentage of inhibition of cell cultures, NK1 receptor immunostaining Intensity grade 2
  inhibition at 1 µM: 53 ± 3%
Prostate carcinoma; read-out: Percentage of inhibition of cell cultures, NK1 receptor immunostaining Intensity grade 3
  inhibition at 1 µM: 94 ± 2%
[4]; Cases with Kras mutated
  inhibition at 100 µM: 25 ± 5%
[4]; [14]
  inhibition at 100 µM: 95 ± 5%
[5]; Breast carcinoma (ductal adenocarcinoma), cases with presence of ERK
  Percentage of inhibition of cell cultures: 93±4 percentage
[5]; Breast carcinoma (ductal adenocarcinoma), cases without presence of ERK
  Percentage of inhibition of cell cultures: 26±4 percentage
[5]; Burkitt Lymphoma, cases with presence of ERK
  Percentage of inhibition of cell cultures: 97±5 percentage
[5]; Burkitt Lymphoma, cases without presence of ERK
  Percentage of inhibition of cell cultures: 28±6 percentage
[5]; Carcinoma of the uterine cervix (Squamous cell carcinoma), cases with presence of ERK
  Percentage of inhibition of cell cultures: 93±4 percentage
[5]; Carcinoma of the uterine cervix (Squamous cell carcinoma), cases without presence of ERK
  Percentage of inhibition of cell cultures: 28±3 percentage
[5]; Colon carcinoma (Adenocarcinoma), cases with presence of ERK
  Percentage of inhibition of cell cultures: 95±3 percentage
[5]; Colon carcinoma (Adenocarcinoma), cases without presence of ERK
  Percentage of inhibition of cell cultures: 24±3 percentage
[5]; Endometrium carcinoma, cases with presence of ERK
  Percentage of inhibition of cell cultures: 93±5 percentage
[5]; Endometrium carcinoma, cases without presence of ERK
  Percentage of inhibition of cell cultures: 29±2 percentage
[5]; Gastric carcinoma (Adenocarcinoma), cases with presence of ERK
  Percentage of inhibition of cell cultures: 96±4 percentage
[5]; Gastric carcinoma (Adenocarcinoma), cases without presence of ERK
  Percentage of inhibition of cell cultures: 25±6 percentage
[5]; Glioma (astrocytoma), cases with presence of ERK
  Percentage of inhibition of cell cultures: 93±4 percentage
[5]; Glioma (astrocytoma), cases without presence of ERK
  Percentage of inhibition of cell cultures: 28±3 percentage
[5]; Lung carcinoma (non small cell lung carcinoma), cases with presence of ERK
  Percentage of inhibition of cell cultures: 95±7 percentage
[5]; Lung carcinoma (non small cell lung carcinoma), cases without presence of ERK
  Percentage of inhibition of cell cultures: 27±5 percentage
[5]; Lung carcinoma (small cell lung carcinoma), cases with presence of ERK
  Percentage of inhibition of cell cultures: 94±5 percentage
[5]; Lung carcinoma (small cell lung carcinoma), cases without presence of ERK
  Percentage of inhibition of cell cultures: 29±4 percentage
[5]; Melanoma (Nodular Melanoma), cases with presence of ERK
  Percentage of inhibition of cell cultures: 96±5 percentage
[5]; Melanoma (Nodular Melanoma), cases without presence of ERK
  Percentage of inhibition of cell cultures: 27±5 percentage
[5]; Non Hodgkin Lymphoma B (diffuse B cell lymphoma), cases with presence of ERK
  Percentage of inhibition of cell cultures: 97±5 percentage
[5]; Non Hodgkin Lymphoma B (diffuse B cell lymphoma), cases without presence of ERK
  Percentage of inhibition of cell cultures: 28±4 percentage
[5]; Non Hodgkin Lymphoma T (diffuse T cell lymphoma), cases with presence of ERK
  Percentage of inhibition of cell cultures: 98±4 percentage
[5]; Non Hodgkin Lymphoma T (diffuse T cell lymphoma), cases without presence of ERK
  Percentage of inhibition of cell cultures: 29±5 percentage
[5]; Ovarian carcinoma (Adenocarcinoma), cases with presence of ERK
  Percentage of inhibition of cell cultures: 92±6 percentage
[5]; Ovarian carcinoma (Adenocarcinoma), cases without presence of ERK
  Percentage of inhibition of cell cultures: 28±5 percentage
[5]; Pancreatic carcinoma (Adenocarcinoma), cases with presence of ERK
  Percentage of inhibition of cell cultures: 94±2 percentage
[5]; Pancreatic carcinoma (Adenocarcinoma), cases without presence of ERK
  Percentage of inhibition of cell cultures: 23±4 percentage
[5]; Prostate carcinoma, cases with presence of ERK
  Percentage of inhibition of cell cultures: 94±5 percentage
[5]; Prostate carcinoma, cases without presence of ERK
  Percentage of inhibition of cell cultures: 27±4 percentage
[5]; Renal cell carcinoma (clear cell renal cell carcinoma), cases with presence of ERK
  Percentage of inhibition of cell cultures: 94±3 percentage
[5]; Renal cell carcinoma (clear cell renal cell carcinoma), cases without presence of ERK
  Percentage of inhibition of cell cultures: 27±3 percentage
[5]; Thyroid carcinoma (follicular carcinoma), cases with presence of ERK
  Percentage of inhibition of cell cultures: 96±6 percentage
[5]; Thyroid carcinoma (follicular carcinoma), cases without presence of ERK
  Percentage of inhibition of cell cultures: 26±4 percentage
[5]; Thyroid carcinoma (papillary carcinoma), cases with presence of ERK
  Percentage of inhibition of cell cultures: 97±4 percentage
[5]; Thyroid carcinoma (papillary carcinoma), cases without presence of ERK
  Percentage of inhibition of cell cultures: 28±3 percentage
[5]; Undifferentiated Pleomorphic Sarcoma (malignant fibrous histiocytoma grade 3), cases with presence of ERK
  Percentage of inhibition of cell cultures: 95±3 percentage
[5]; Undifferentiated Pleomorphic Sarcoma (malignant fibrous histiocytoma grade 3), cases without presence of ERK
  Percentage of inhibition of cell cultures: 26±4 percentage
[5]; Urinary bladder carcinoma (transitional cell carcinoma), cases with presence of ERK
  Percentage of inhibition of cell cultures: 98±2 percentage
[5]; Urinary bladder carcinoma (transitional cell carcinoma), cases without presence of ERK
  Percentage of inhibition of cell cultures: 29±4 percentage
[5]; cancer cell cultures that show more presence of ERK, compared, non-peptidic antagonists 100 micromolar, antibody 1/50
  inhibition of cell proliferation: higher inhibition
[6]; Cases with Kras mutated
  inhibition at 100 µM: 27 ± 3%
[6]; [14]
  inhibition at 100 µM: 93 ± 4%
Fibrosarcoma; [8]
  inhibition at 1 µM: 15 ± 2%
Fibrosarcoma; [9]
  inhibition at 1 µM: 47 ± 5%
Fibrosarcoma; [10]
  inhibition at 1 µM: 93 ± 4%
Fibrosarcoma; [11]
  inhibition at 1 µM: 35 ± 6%
Fibrosarcoma; [12]
  inhibition at 1 µM: 55 ± 3%
Fibrosarcoma; [13]
  inhibition at 1 µM: 92 ± 4%
[7]; [8]
  inhibition at 1 µM: 16 ± 3%
[7]; [9]
  inhibition at 1 µM: 47 ± 4%
[7]; [10]
  inhibition at 1 µM: 93 ± 3%

Source: patent EP2966448B1, “METHOD FOR THE PREDICTION OR PROGNOSIS OF THE RESPONSE OF A HUMAN SUBJECT SUFFERING FROM CANCER TO TREATMENT WITH AN ANTAGONIST OF THE NK1 RECEPTOR” (priority 2013, dated 2014)
